Test results reported in article PMC3552485 (ACS Chemical Biology, 2012).

Molecular target: T1, TarO (N-acetylglucosamine-1-phosphate transferase) (Staphylococcus aureus, UniProt Q2G060)
T1 sequence (Q2G060 1-351): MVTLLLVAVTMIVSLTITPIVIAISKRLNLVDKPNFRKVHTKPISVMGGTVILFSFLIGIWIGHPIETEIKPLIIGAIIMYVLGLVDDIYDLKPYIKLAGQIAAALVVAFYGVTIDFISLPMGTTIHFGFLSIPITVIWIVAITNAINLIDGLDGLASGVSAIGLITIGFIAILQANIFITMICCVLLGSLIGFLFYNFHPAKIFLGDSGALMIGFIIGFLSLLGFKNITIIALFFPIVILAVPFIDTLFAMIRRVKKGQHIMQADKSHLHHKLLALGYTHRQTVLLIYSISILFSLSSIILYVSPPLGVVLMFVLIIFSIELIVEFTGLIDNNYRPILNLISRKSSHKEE
Assay type: biochemical

Clc1ccccc1CN1CCc2sccc2C1 [ticlopidine]
IC50: 238 ± 14 µM
